Assay results from patent US4540699A, “N-Substituted pyridinones having histamine H2 -antagonist activity” (Smith Kline & French Laboratories Limited, priority 1982, dated 1985).

System: histamine H2 -receptors
Experiment: inhibition of histamine-stimulated gastric acid secretion in urethane-anaesthetised rats after intraduodenal and intravenous injection
Format: in vivo, rat
Settings: ratio intraduodenal/intravenous dose for 50% inhibition; rats anaesthetised with urethane
Protocol: The inhibition of histamine-stimulated secretion of gastric acid in rats anaesthetised with urethane was measured after administration of test compounds by intraduodenal injection and intravenous injection. For the compound of Example 2 the intraduodenal dose required to produce 50% inhibition was only 3 times the intravenous dose required to produce a similar effect, and for the compound of Example 10 the intraduodenal dose required was 10 times the intravenous dose. In contrast the compound of Example 7 of EP-A-3677 required an intraduodenal dose 500 times that of the intravenous dose required to inhibit acid secretion by 50%. Good activity after intraduodenal injection is indicative that there will good activity after oral administration.

SMILES | intraduodenal dose required to produce 50% inhibition of acid secretion relative to the intravenous dose
CN(C)Cc1ccc(CSCCNc2ncc(Cc3ccn(C)c(=O)c3)c(=O)[nH]2)o1 [Example 2, 2-[2-(2-Dimethylaminomethyl-5-furylmethylthio)ethylamino]-5-(1-methyl-2-oxopyridin-4-ylmethyl)pyrimidin-4-one] | 3 times
Cn1ccc(Cc2cnc(NCCCOc3cccc(CN4CCCCC4)c3)[nH]c2=O)cc1=O [Example 10, 2-[3-[3-(Piperidinomethyl)phenoxy]propylamino]-5-(1-methyl-2-oxopyridin-4-ylmethyl)pyrimidin-4-one] | 10 times
